What was measured:
CjCst-I = type: biochemical, Campylobacter jejuni
CjCst-II = type: biochemical, Campylobacter jejuni

CCCCCCCCCCCCC/C=C/[C@@H](O)[C@@H](N)CO [GD1b sphingosine]
activity towards sialylating (CjCst-I): very good activity

CC(=O)N[C@H]1[C@H](O)[C@H](NC(C)=O)C(O)O[C@@H]1CO (stereo partly drawn) [ManNAc4NAc, 4-acetamido-4-deoxy-N-acetylmannosamine]
Sialylation by CjCst-II, acceptor GM3ßSph (CjCst-II): No reaction | Sialylation by CjCst-II, acceptor GM3βProN3 (CjCst-II): No reaction

— US20240409571A1 (priority 2023, published 2024)
